The source of these data is PubChem BioAssay AID330 (DTP/NCI, 2004).

Structures are written as SMILES. “And” between values parts separate entries of the source, which are not always exact repeats. Equal values may be shown once. Inconclusive results and toxic doses are left out. Peptide text beside a SMILES is read from it.

This test relates to P388 leukemia ip, CD2F1 mice, survival T/C. The test is described as follows: NCI In Vivo Anticancer Drug Screen. Data for tumor model P388 Leukemia (intraperitoneal) in CD2F1 (CDF1) mice. To be noted: endpoint: median survival time, higher = longer survival. In outline:
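Mice carrying the transplanted tumor received test compound or vehicle. Survival was recorded in each group, and the value is the treated-group measurement divided by that of the vehicle-treated control group.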

The mark [1] stands for this setting: dose: 50.0 mg/kg/injection, schedule: Q01DX009 (ip), vehicle: saline with Tween-80.
The mark [2] stands for this setting: dose: 100.0 mg/kg/injection, schedule: Q01DX009 (ip), vehicle: saline with Tween-80.
Where [3] appears, read: dose: 60.0 mg/kg/injection, schedule: Q01DX005 (ip), vehicle: saline with Tween-80.
Setting [4] is: dose: 120.0 mg/kg/injection, schedule: Q01DX005 (ip), vehicle: saline with Tween-80.
[5] abbreviates: dose: 240.0 mg/kg/injection, schedule: Q01DX005 (ip), vehicle: saline with Tween-80.
The mark [6] stands for this setting: dose: 200.0 mg/kg/injection, schedule: Q01DX009 (ip), vehicle: saline with Tween-80.
Where [7] appears, read: dose: 50.0 mg/kg/injection, schedule: Q01DX005 (ip), vehicle: Klucel (hydroxypropylcellulose) (HPC).
Where [8] appears, read: dose: 100.0 mg/kg/injection, schedule: Q01DX005 (ip), vehicle: Klucel (hydroxypropylcellulose) (HPC).
The mark [9] stands for this setting: dose: 200.0 mg/kg/injection, schedule: Q01DX005 (ip), vehicle: Klucel (hydroxypropylcellulose) (HPC).
The mark [10] stands for this setting: dose: 50.0 mg/kg/injection, schedule: Q01DX009 (ip), vehicle: saline.
[11] abbreviates: dose: 100.0 mg/kg/injection, schedule: Q01DX009 (ip), vehicle: saline.
The mark [12] stands for this setting: dose: 200.0 mg/kg/injection, schedule: Q01DX009 (ip), vehicle: saline.
Setting [13] is: dose: 50.0 mg/kg/injection, schedule: Q01DX005 (ip), vehicle: saline with Tween-80.
Setting [14] is: dose: 100.0 mg/kg/injection, schedule: Q01DX005 (ip), vehicle: saline with Tween-80.

With `COC1CC(OC2CCC3(C)C(=CCC4C3C(OC(C)=O)C(OC(=O)CC(C)C)C3(C)C(C(C)=O)CCC43O)C2)OC(C)C1OC1CC(OC)C(OC2CC(OC)C(OC3OC(C)C(OC4OC(CO)C(O)C(O)C4O)C(OC)C3O)C(C)O2)C(C)O1` (stereo not drawn), the T/C reads like this: (dose: 4.13 mg/kg/injection, schedule: Q01DX005 (ip), vehicle: Klucel (hydroxypropylcellulose) (HPC)) 95 % of control; (dose: 8.25 mg/kg/injection, schedule: Q01DX005 (ip), vehicle: Klucel (hydroxypropylcellulose) (HPC)) 101 % of control; (dose: 16.5 mg/kg/injection, schedule: Q01DX005 (ip), vehicle: Klucel (hydroxypropylcellulose) (HPC)) 101 % of control.
Turning to `C/C=C1/CN2CCc3c([nH]c4ccccc34)C2CC1C(Cc1c[n+]2c(c3[nH]c4ccccc4c13)CC1C(C(=O)OC)=COC(C)C1C2)C(=O)OC` (stereo not drawn), the T/C is, setting by setting: (dose: 25.0 mg/kg/injection, schedule: Q01DX009 (ip), vehicle: saline with Tween-80) 91 % of control; under setting [1], 89 % of control; under setting [2], 90 % of control.
Regarding `COc1cccc2c1C(=O)c1c(O)c3c(c(O)c1C2=O)C[C@@](O)(/C(C)=N/N1CCCCC1)C[C@@H]3OC1CC(N)C(O)C(C)O1` (stereo partly drawn), the T/C reads like this: (dose: 1.25 mg/kg/injection, schedule: Q01DX009 (ip), vehicle: saline) 156 % of control; (dose: 2.5 mg/kg/injection, schedule: Q01DX009 (ip), vehicle: saline) 160 % of control; (dose: 5.0 mg/kg/injection, schedule: Q01DX009 (ip), vehicle: saline) 101 % of control.
With `N=C1N=Nc2nc(C(C(=O)c3ccc(O)cc3O)c3nc4n(c3O)C(=N)N=N4)c(O)n21` (stereo not drawn), the T/C runs as follows: under setting [3], 100 % of control; under setting [4], 104 % of control; under setting [5], 103 % of control.
As to `CCSCCCCSCC`, the T/C runs as follows: under setting [1], 100 % of control; under setting [2], 109 % of control; under setting [6], 113 % of control.
Regarding `Nc1cccc2c1C(=O)c1ccc(Cl)cc1C2=O`, the T/C is, setting by setting: under setting [7], 99 % of control; under setting [8], 94 % of control; under setting [9], 99 % of control.
With `CC(C)CC(NC(=O)C(NC(=O)C(N)C(C)O)C(C)C)C(=O)O` (stereo not drawn) (H-Thr-Val-Leu-OH; configuration not given here), the T/C is 95 % of control under setting [7], 101 % of control under setting [8] and 104 % of control under setting [9].
In the case of `CCOc1cccc(/C=N/n2c(C)nc3ccccc3c2=O)c1O`, the T/C reads like this: under setting [1], 101 % of control; under setting [2], 102 % of control; under setting [6], 96 % of control.
As to `O=C1Cc2ccccc2C(c2ccc(Cl)cc2Cl)N1` (stereo not drawn), the T/C is, setting by setting: under setting [10], 98 % of control; under setting [11], 98 % of control; under setting [12], 100 % of control.
Consider `CCOC(=O)C(=CNc1ccc2c(c1)OCO2)C(=O)OCC`, for which the T/C is 100 % of control (dose: 50.0 mg/kg/injection, schedule: Q01DX005 (ip), vehicle: distilled water + Tween-80 + alcohol); 95 % of control (dose: 100.0 mg/kg/injection, schedule: Q01DX005 (ip), vehicle: distilled water + Tween-80 + alcohol); 102 % of control (dose: 200.0 mg/kg/injection, schedule: Q01DX005 (ip), vehicle: distilled water + Tween-80 + alcohol).
For the compound `NC(=O)Nc1cc2oc(=O)[nH]c2cc1Cl`, the T/C reads like this: under setting [13], 94 % of control; under setting [14], 95 % of control; (dose: 200.0 mg/kg/injection, schedule: Q01DX005 (ip), vehicle: saline with Tween-80) 90 % of control.
With `CC(O)C(NC(=O)c1ccc([N+](=O)[O-])cc1)C(=O)O` (stereo not drawn), the T/C runs as follows: (dose: 50.0 mg/kg/injection, schedule: Q01DX005 (ip), vehicle: saline) 105 % of control; (dose: 100.0 mg/kg/injection, schedule: Q01DX005 (ip), vehicle: saline) 102 % of control; (dose: 200.0 mg/kg/injection, schedule: Q01DX005 (ip), vehicle: saline) 91 % of control.
With `Cc1ccc(Cl)cc1S`, the T/C was 95 % of control (dose: 50.0 mg/kg/injection, schedule: Q04DX003 (ip), vehicle: saline) and 95 % of control (dose: 100.0 mg/kg/injection, schedule: Q04DX003 (ip), vehicle: saline).
On to `CC(C(/C=N/NC(N)=S)=N/NC(N)=S)N1C(=O)c2ccccc2C1=O` (stereo not drawn), for which the T/C under setting [3] was 97 % of control, the T/C under setting [4] is 94 % of control and the T/C under setting [5] is 88 % of control.
In the case of `O=C1C=CC(=O)N1c1ccc(Cl)cc1Cl`, the T/C (dose: 3.12 mg/kg/injection, schedule: Q04DX003 (ip), vehicle: saline with Tween-80) is 105 % of control; the T/C (dose: 6.25 mg/kg/injection, schedule: Q04DX003 (ip), vehicle: saline with Tween-80) is 109 % of control; the T/C (dose: 12.5 mg/kg/injection, schedule: Q04DX003 (ip), vehicle: saline with Tween-80) was 96 % of control.
In the case of `COC1(OC)C(c2ccc([N+](=O)[O-])cc2)C(C#N)(C#N)C1(OC)OC` (stereo not drawn), the T/C runs as follows: (dose: 60.0 mg/kg/injection, schedule: Q01DX005 (ip), vehicle: Klucel (hydroxypropylcellulose) (HPC)) 100 % of control; (dose: 120.0 mg/kg/injection, schedule: Q01DX005 (ip), vehicle: Klucel (hydroxypropylcellulose) (HPC)) 97 % of control; (dose: 240.0 mg/kg/injection, schedule: Q01DX005 (ip), vehicle: Klucel (hydroxypropylcellulose) (HPC)) 99 % of control.
For the compound `O=c1c([N+](=O)[O-])c[nH]c2ccccc12`, the T/C was 92 % of control (dose: 25.0 mg/kg/injection, schedule: Q01DX009 (ip), vehicle: distilled water + Tween-80); 87 % of control (dose: 50.0 mg/kg/injection, schedule: Q01DX009 (ip), vehicle: distilled water + Tween-80); 108 % of control (dose: 100.0 mg/kg/injection, schedule: Q01DX009 (ip), vehicle: distilled water + Tween-80); 93 % of control (dose: 200.0 mg/kg/injection, schedule: Q01DX009 (ip), vehicle: distilled water + Tween-80).
`Cn1ncc2c(NCCc3ccccc3)ncnc21`: for the setting “dose: 100.0 mg/kg/injection, schedule: Q04DX003 (ip), vehicle: saline with Tween-80”, the T/C is 109 % of control.
In the case of `C=C(C#N)C1OC2OC(C)(C)OC2C1OC` (stereo not drawn), the T/C under setting [13] is 107 % of control and the T/C under setting [14] was 118 % of control.
For `O=NN1CC23C=CCCC2(CCCC3)C1` (stereo not drawn), the T/C was 113 % of control (dose: 100.0 mg/kg/injection, schedule: Q04DX003 (ip), vehicle: Klucel (hydroxypropylcellulose) (HPC)); 114 % of control (dose: 200.0 mg/kg/injection, schedule: Q04DX003 (ip), vehicle: Klucel (hydroxypropylcellulose) (HPC)); 104 % of control (dose: 400.0 mg/kg/injection, schedule: Q04DX003 (ip), vehicle: Klucel (hydroxypropylcellulose) (HPC)).
As to `CC(=O)/C=C(\c1ccccc1)c1c(O)c2ccccc2oc1=O`, the T/C runs as follows: under setting [1], 89 % of control; under setting [2], 99 % of control; under setting [6], 114 % of control.
As for `Cc1ccc(S(=O)(=O)OC2CCCC2)cc1`, the T/C is 100 % of control (dose: 50.0 mg/kg/injection, schedule: Q01DX009 (ip), vehicle: other); 103 % of control (dose: 100.0 mg/kg/injection, schedule: Q01DX009 (ip), vehicle: other); 89 % of control (dose: 200.0 mg/kg/injection, schedule: Q01DX009 (ip), vehicle: other).
As to `CC(C)C(=O)N1CCCCCCN1C(=O)C(C)C`, the T/C is 107 % of control (dose: 100.0 mg/kg/injection, schedule: Q01DX009 (ip), vehicle: Klucel (hydroxypropylcellulose) (HPC)) and 111 % of control (dose: 200.0 mg/kg/injection, schedule: Q01DX009 (ip), vehicle: Klucel (hydroxypropylcellulose) (HPC)).
Regarding `OC1=CC(=S)NC2CCCCC12` (stereo not drawn), the T/C under setting [7] is 86 % of control, the T/C under setting [8] is 102 % of control and the T/C under setting [9] is 102 % of control.
Turning to `O=C(O)/C=C/c1ccc(O)c(O)c1`, the T/C reads like this: under setting [10], 101 % of control and 103 % of control; under setting [11], 101 % of control and 118 % of control; under setting [12], 102 % of control and 107 % of control; (dose: 400.0 mg/kg/injection, schedule: Q01DX009 (ip), vehicle: saline) 100 % of control and 103 % of control; (dose: 600.0 mg/kg/injection, schedule: Q01DX009 (ip), vehicle: saline) 116 % of control.
